The target of data set [1] is T1, human NPFFR1 (hNPFFR1) receptor (Homo sapiens, UniProt Q9GZQ6).
T1 construct: expressed in transfected cells; host or cells: HEK-293 T cells, transient co-transfection with polyethylenimine
The data set can be described thus: Human NPFFR1 evaluation using BRET biosensors (antagonist IC50). The format is cell-based. The settings on record: hNPFFR1 transiently over-expressed in HEK-293 T cells; BRET signal; stimulation by EC80 RFRP-3. The method, then: Compounds of the present invention were tested successively for their agonist and antagonist activities on human NPFFR1 (hNPFFR1) receptor transiently over-expressed in HEK-293 T cells. Compounds exert agonist activity if, by themselves in absence of neuropeptide RFRP-3 (also named NPVF) they activate hNPFFR1; and they exert antagonist activity if they decrease the action of RFRP-3 on the receptor.
The assay used to measure compound activity is based on BRET (Bioluminescence Resonance Energy Transfer) biosensors and is designed to monitor the plasma membrane translocation of protein that interacts with specific Ga subunit. The specific effector (luciferase tagged: BRET donor) recruited at the membrane will be in close proximity to a plasma membrane anchor (GFP tagged: BRET acceptor) to induce a BRET signal. Biosensors are described in the patent application WO 2016/041093 A1 (Biosensors for monitoring biomolecule localization and trafficking in cells).
HEK-293 T cells are maintained in Dulbecco's Modified Eagle's Medium supplemented with 10% Foetal Calf Serum, 1% Penicillin/Streptomycin at 37° C./5% CO2.
Cells are co-transfected using polyethylenimine (25 kDa linear) with four DNA plasmids encoding: hNPFFR1, GαoB, a Gi family specific intracellular effector fused to luciferase (BRET donor), a plasma membrane effector fused to GFP (BRET acceptor). After transfection, cells are cultured for 48 h at 37° C./5% CO2.
Receptor activity is detected by changes in BRET signal.
On the day of the assay, cells are detached using trypsin 0.05%, resuspended in assay buffer (1.8 mM CaCl2, 1 mM MgCl2, 2.7 mM KCl, 137 mM NaCl, 0.4 mM NaH2PO4, 5.5 mM D-Glucose, 11.9 mM NaHCO3, 25 mM Hepes) and seeded in 384 well plate at a density of 20,000 cells per well. Then, plates are equilibrated 3.5 hours at 37° C. before adding compounds.
Compounds and luciferase substrate are added to the cells using an automated device (Freedom Evo®, Tecan) and BRET readings are collected on EnVision (PerkinElmer) with specific filters (410 nm BW 80 nm, 515 nm BW 30 nm).
Agonist and antagonist activities of compounds are consecutively evaluated on the same cell plate. Agonist activity is first measured after 10 minutes incubation with compound alone on the cells. Then, cells are stimulated by an EC80 RFRP-3 concentration and luminescence is recorded for additional 10 minutes. EC80 RFRP-3 concentration is the concentration giving 80% of the maximal RFRP-3 response. Agonist or antagonist activities are evaluated in comparison to basal signals evoked by assay buffer or EC80 RFRP-3 alone, respectively.
For IC50 determination, a dose-response test is performed using 20 concentrations (ranging over 6 logs) of each compound. Dose-response curves are fitted using the sigmoidal dose-response (variable slope) analysis in GraphPad Prism software (GraphPad Software) and IC50 of antagonist activity is calculated. Dose-response experiments are performed in duplicate, in two independent experiments.

pIC50: −log10 of the molar value.

T1 sequence (Q9GZQ6 whole entry): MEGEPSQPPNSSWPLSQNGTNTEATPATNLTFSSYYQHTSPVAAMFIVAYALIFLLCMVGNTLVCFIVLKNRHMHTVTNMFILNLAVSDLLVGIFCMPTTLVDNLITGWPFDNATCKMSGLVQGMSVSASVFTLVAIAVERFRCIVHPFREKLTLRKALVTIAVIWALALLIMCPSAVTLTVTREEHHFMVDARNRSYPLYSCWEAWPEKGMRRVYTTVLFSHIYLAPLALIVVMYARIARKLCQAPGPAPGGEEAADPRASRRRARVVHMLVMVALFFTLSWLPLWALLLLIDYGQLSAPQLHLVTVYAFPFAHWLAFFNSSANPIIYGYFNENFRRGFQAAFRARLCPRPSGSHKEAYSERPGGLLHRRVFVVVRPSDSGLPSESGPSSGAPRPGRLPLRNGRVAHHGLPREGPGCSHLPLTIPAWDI

Broadly, the pIC50 is the IC50 on a negative log10 scale, so that one unit is a factor of ten. Low values mean a large IC50, high ones a small IC50. As a reminder, the melting point is the temperature, or range, at which the solid turns liquid. Regarding `CCc1nc(N)ccc1-c1cccc2ccc(C(=O)N(CC)C(C)C)nc12.Cl` [Example 170, 8-(6-amino-2-ethylpyridin-3-yl)-N-ethyl-N-isopropylquinoline-2-carboxamide], the melting point is 121 to 125 °C. Also, the pIC50 in data set [1] was above 7.00.
Turning to `Cl.Nc1ccc(-c2ccccc2-c2cccnc2)c(N)n1` [Example 45, 3-[2-(3-pyridyl)phenyl]pyridine-2,6-diamine], the melting point was 100 to 135 °C. Besides, the pIC50 in data set [1] was 6.00 to 7.00.
On to `CCc1nc(N)ccc1-c1c(F)c(F)cc2cccnc12.Cl` [Example 111, 5-(6,7-difluoroquinolin-8-yl)-6-ethylpyridin-2-amine], for which the melting point lay within 150 to 190 °C. The compound further gave a pIC50 in data set [1] above 7.00.
Regarding `CCc1nc(N)ccc1-c1c(OC(F)F)ccc2cccnc12.Cl` [Example 105, 5-(7-(difluoromethoxy)quinolin-8-yl)-6-ethylpyridin-2-amine], the melting point lay in the range of 120 to 160 °C. The compound further showed a pIC50 in data set [1] above 7.00.
On the same counts, the results for `CCc1nc(N)ccc1-c1cccc2nccnc12.Cl` [Example 101, 6-ethyl-5-(quinoxalin-5-yl)pyridin-2-amine] are above 250 °C and 6.00 to 7.00.
As for `Cl.Nc1ccc(-c2cccc3cccnc23)c(CC2CCC2)n1` [Example 68, 6-(cyclobutylmethyl)-5-(quinolin-8-yl)pyridin-2-amine], the melting point lay in the range of 120 to 180 °C. In data set [1], this compound gave a pIC50 above 7.00.
Take `Nc1ccc(-c2cccc3ncccc23)c(N)n1` [Example 34, 3-Quinolin-5-yl-pyridine-2,6-diamine]: the melting point was above 250 °C. Moreover, in data set [1], the pIC50 was 6.00 to 7.00.
Compound `CC(C)c1nc(N)ccc1-c1cccc2cccnc12.Cl` [Example 11, 6-Isopropyl-5-(8-quinolyl)pyridin-2-amine] had a melting point above 250 °C. The compound also showed a pIC50 in data set [1] above 7.00.
`CCc1nc(N)ccc1-c1cccc2c1NCC2.Cl` [Example 164, 6-ethyl-5-(indolin-7-yl)pyridin-2-amine] showed a melting point of 175 to 183 °C. In addition, the pIC50 in data set [1] was 6.00 to 7.00.
In the case of `CCc1nc(N)ccc1-c1cccc2ccc(C(=O)NCc3ccccc3)nc12.Cl` [Example 174, 8-(6-amino-2-ethylpyridin-3-yl)-N-benzylquinoline-2-carboxamide], the melting point lay in the range of 102 to 114 °C. Further, the pIC50 in data set [1] is above 7.00.
As for `CCc1nc(N)ccc1-c1cccc2ccc(C(F)(F)F)nc12.Cl` [Example 99, 6-ethyl-5-(2-(trifluoromethyl)quinolin-8-yl)pyridin-2-amine], the melting point lay within 90 to 130 °C. In data set [1], the pIC50 was above 7.00.
On the same counts, the results for `CCOc1ccc2cccc(-c3ccc(N)nc3CC)c2n1.Cl` [Example 94, 5-(2-ethoxyquinolin-8-yl)-6-ethylpyridin-2-amine] are 35 to 70 °C and above 7.00.
In the case of `CCc1nc(N)ccc1-c1cccc2c1N(C)CC2.Cl` [Example 162, 6-ethyl-5-(1-methylindolin-7-yl)pyridin-2-amine], the melting point was above 250 °C. The compound further showed a pIC50 in data set [1] of 6.00 to 7.00.
The compound `CCc1nc(N)ccc1-c1c(C)sc2ccccc12.Cl` [Example 41, 6-Ethyl-5-(2-methylbenzothiophen-3-yl)pyridin-2-amine] had a melting point of 70 to 72 °C. In data set [1], this compound gave a pIC50 of 6.00 to 7.00.
Turning to `CCc1nc(N)ccc1-c1c(F)ccc2c1OCCC2.Cl` [Example 176, 6-ethyl-5-(7-fluorochroman-8-yl)pyridin-2-amine], the melting point was in the range of 85 to 95 °C. This compound also showed a pIC50 in data set [1] above 7.00.
On the same counts, the results for `CCc1nc(N)ccc1-c1c(F)ccc2c1OCC=CC2.Cl` [Example 178, 6-ethyl-5-(8-fluoro-2,5-dihydrobenzo[b]oxepin-9-yl)pyridin-2-amine] are 43 to 52 °C and above 7.00.
For the compound `Cl.Nc1ccc(-c2csc3ccccc23)c(N)n1` [Example 21, 3-(Benzothiophen-3-yl)pyridine-2,6-diamine], the melting point lay within 35 to 38 °C. This compound also showed a pIC50 in data set [1] of 6.00 to 7.00.
On the same counts, the results for `CCc1nc(N)ccc1-c1c(F)ccc2ccc(N3CC4CCC(C3)O4)nc12.Cl` [Example 136, 5-(2-(8-oxa-3-azabicyclo[3.2.1]octan-3-yl)-7-fluoroquinolin-8-yl)-6-ethylpyridin-2-amine] are 140 to 172 °C and above 7.00.
The compound `CCc1nc(N)ccc1-c1cccc2ccc(C)nc12.Cl` [Example 90, 6-ethyl-5-(2-methylquinolin-8-yl)pyridin-2-amine] displayed a melting point of 110 to 150 °C. The pIC50 in data set [1] was above 7.00.
Turning to `Cc1cc(-c2ccc(N)nc2N)c2ncccc2c1.Cl` [Example 53, 3-(6-methylquinolin-8-yl)pyridine-2,6-diamine], the melting point was 180 to 200 °C. In data set [1], this compound gave a pIC50 above 7.00.
`CCc1nc(N)ccc1-c1cccc2cc3c(nc12)CCC3.Cl` [Example 115, 5-(2,3-dihydro-1H-cyclopenta[b]quinolin-5-yl)-6-ethylpyridin-2-amine] returned a melting point of 153 to 169 °C. The same compound gave a pIC50 in data set [1] above 7.00.
Regarding `CCc1nc(N)ccc1-c1c(F)c(F)cc2cc(O)cnc12.Cl` [Example 112, 8-(6-amino-2-ethylpyridin-3-yl)-6,7-difluoroquinolin-3-ol], the melting point fell in the range of 204 to 210 °C. In data set [1], this compound gave a pIC50 of 6.00 to 7.00.
Compound `CCc1nc(N)ccc1-c1c(F)ccc2cccnc12.Cl` [Example 65, 6-ethyl-5-(7-fluoroquinolin-8-yl)pyridin-2-amine] returned a melting point of 150 to 195 °C. The pIC50 in data set [1] was above 7.00.
In turn, `CCc1nc(N)ccc1-c1cccc2ccc(-c3cnccn3)nc12.Cl` [Example 126, 6-ethyl-5-(2-(pyrazin-2-yl)quinolin-8-yl)pyridin-2-amine] returned a melting point above 250 °C. Moreover, the pIC50 in data set [1] is above 7.00.
The compound `CCc1nc(N)ccc1-c1cccc2c(C)ccnc12.Cl` [Example 91, 6-ethyl-5-(4-methylquinolin-8-yl)pyridin-2-amine] registered a melting point above 250 °C. Further, the pIC50 in data set [1] was 6.00 to 7.00.
Turning to `CCc1nc(N)ccc1-c1cccc2ccc(C3(C)CC3)nc12.Cl` [Example 120, 6-ethyl-5-(2-(1-methylcyclopropyl)quinolin-8-yl)pyridin-2-amine], the melting point lay within 90 to 95 °C. For the same compound, the pIC50 in data set [1] was 6.00 to 7.00.
In turn, `CC(C)Cc1nc(N)ccc1-c1cccc2cccnc12.Cl` [Example 67, 6-isobutyl-5-(quinolin-8-yl)pyridin-2-amine] registered a melting point of 100 to 140 °C. The compound also had a pIC50 in data set [1] above 7.00.
`CCc1nc(N)ccc1-c1nccc2cccnc12.Cl` [Example 100, 6-ethyl-5-(1,7-naphthyridin-8-yl)pyridin-2-amine] returned a melting point of 160 to 200 °C. The negative-log IC50 (pIC50) in data set [1] was below 6.00.
In turn, `CCc1nc(N)ccc1-c1c(F)ccc2c1OCCCC2.Cl` [Example 179, 6-ethyl-5-(8-fluoro-2,3,4,5-tetrahydrobenzo[b]oxepin-9-yl)pyridin-2-amine] came in with a melting point of 47 to 65 °C. Also, in data set [1], the pIC50 is above 7.00.
`CCc1nc(N)ccc1-c1c(F)cc(F)c2cc(F)cnc12.Cl` [Example 145, 6-ethyl-5-(3,5,7-trifluoroquinolin-8-yl)pyridin-2-amine] came in with a melting point of 110 to 120 °C. The compound further showed a pIC50 in data set [1] above 7.00.
With `CCc1nc(N)ccc1-c1ccc(C)c2cccnc12.Cl` [Example 96, 6-ethyl-5-(5-methylquinolin-8-yl)pyridin-2-amine], the melting point is above 250 °C. In data set [1], this compound had a pIC50 of 6.00 to 7.00.
Turning to `CCc1nc(N)ccc1-c1c(C(F)(F)F)ccc2cccnc12.Cl` [Example 109, 6-ethyl-5-(7-(trifluoromethyl)quinolin-8-yl)pyridin-2-amine], the melting point fell in the range of 150 to 180 °C. For the same compound, the pIC50 in data set [1] was above 7.00.

For the origin of these results see patent US20220298135A1, “5-HETEROARYL-PYRIDIN-2-AMINE COMPOUNDS AS NEUROPEPTIDE FF RECEPTOR ANTAGONISTS” (Domain Therapeutics, priority 2019, published 2022).
